Results reported in paper PMC8546421, “Molecular modelling of the FOXO4-TP53 interaction to design senolytic peptides for the elimination of senescent cancer cells” (EBioMedicine, 2021).
Entries after “also recorded” stand apart in the source; their conditions may differ. Like-named read-outs stand apart in the source and are kept apart here. Where no end group is shown, it is not given here.

Experiments:
[1] = test system: senescent A375 human melanoma cells; test: Orthotopic xenograft of senescent luciferase A375 cells in mouse ears; format: in vivo; conditions: NSG mouse ears, local injection 50 µL of 5 mg/mL once daily for two days, imaged 24 hours after second treatment; ANOVA p<0.01
Source text: Mice were aged between 3-8 months and 20-30 g in weight and were housed in specific pathogen free cages. Animals were randomly distributed among treatment groups by assigning mice within the same cage to different treatment regimens. To minimise confounders, mouse treatment order was randomised within each cage. Male and female mice were distributed between all treatment groups since the chemicals used were directly injected and are not metabolized. Researchers were not blinded to the group allocation, but all attempts were made to analyse the data without knowing treatment conditions. NOD.Cg-Prkdcscid Il2rgtm1Wjl/SzJ (NSG) were purchased from The Jackson Laboratory (IMSR Cat# JAX:005557, RRID:IMSR_JAX:005557). NOD.Cg-KitW-41J Tyr + Prkdcscid Il2rgtm1Wjl/ThomJ (NBSGW) were purchased from The Jackson Laboratory (IMSR Cat# JAX:026622, RRID:IMSR_JAX:026622). Immunocompromised mice used for these experiments were all in the NSG background; however, some mice were F1 generation of NSG x NBSGW, thus the brown coat colour as NBSGW mice have tyrosinase. Xenografts containing senescent cells were established by injecting A375-Luc/iRFP human melanoma cells which contained a luciferase expressing gene into immunocompromised NSG ears. Senescence was induced in the cells via doxorubicin treatment (40 nM) then resuspended in DMEM prior to injection. Each ear was then injected with 50 µL containing approximately 1,000,000 cells. The ears were treated once daily for two days with 50 µL of either 5 mg/mL peptide, or saline. To control for confounders, each mouse contained one ear treated with saline (control). For imaging, mice were injected with 3 mg luciferin intravenously and imaged before and after treatment. Transgenic mice (BrafCA, PtenloxP, Tyr::CreERT2) were purchased from The Jackson Laboratory (IMSR Cat# JAX:013590, RRID:IMSR_JAX:013590). These mice were maintained on a C57Bl6 background and all experimental mice contained Tyr::CreER with either Braf^CA/+, Pten^fx/+; Braf^CA/CA, Pten^fx/+, or Braf^CA/+, Pten^fx/fx. […] Hypopigmented melanomas sporadically formed over the next 3-5 months, typically on the back of the mouse. These melanomas were then directly injected with 100 µL of either 20 mg/mL ES2+10%DMSO, saline+10%DMSO, saline+10%Dabrafenib, or 20 mg/mL ES2+10%Dabrafenib. The researchers were not blinded to the experiment, but each mouse contained an internal control and all imaging was done with the same exposure times based upon control tissue. For survival analyses, either 750,000 or 25,000 A375-Luc/iRFP cells were injected intradermally into NSG mice. Different combinations of drugs were locally injected to the region once daily for two days with 50 µL of either 5 mg/mL ES2, 10%Dabrafenib, or 5mg/mL ES2+10%Dabrafenib. Dabrafenib was made at 100 mg/mL in DMSO. Mice were then monitored daily and allowed to age until a humane endpoint was reached according to our IACUC protocol, which in this case was tumours of 2 cm in size. Aged C57Bl6 male mice were purchased from the Jackson Laboratory (IMSR Car# JAX:000664, RRID:IMSR_JAX:000664) at 72 weeks of age and were started on the experiment at 82 weeks. Mice were treated with 3 mg of ES2 via tail vein injection weekly for three weeks and weighed weekly. Blood was drawn prior to beginning experiments and at the endpoint. To generate plasma, blood was centrifuged at 1,500g for 10 minutes, then 2,500g for 10 minutes, then frozen for later analyses. […]

FOXO4 = molecular target: T1, FOXO4 (Homo sapiens, UniProt P98177); test: Bio-layer Interferometry, FOXO4; format: binding
T1 construct: purchased OriGene Technologies TP760655
Procedure: Bio-layer Interferometry (BLI) measurements were performed on a ForteBio Octet RED384 instrument (Molecular Devices) using ForteBio Data Acquisition software 9.0 and ForteBio biosensors (Molecular Devices) according to the manufacturer's instructions. Kinetic assays were carried out at 30°C using settings of Standard Kinetics Acquisition rate (5.0 Hz, averaging by 20) at a sample plate shake speed of 1,000 rpm. Streptavidin sensors (SA) (ForteBio) equilibrated in PBS were mock loaded (no ligand reference sensor) or loaded with 50 nM of N- terminal biotinylated ES2 peptide (New England Peptide, Inc.) with an approximate response of 1 nm. Ligand loaded SA sensors equilibrated in Kinetics buffer (ForteBio) to establish a baseline, were dipped into wells containing 2-fold dilutions of TP53 (Millipore Sigma Aldrich; Cat# 23-034), FOXO4 (OriGene Technologies; Cat# TP760655) or GFP analytes in kinetics buffer, or buffer alone (reference sample). Increasing concentrations of analytes ranging from 6.2 - 200 nM were allowed to associate for 240 secs, followed by 600 sec dissociation step where the TP53/FOXO4-bound sensors were washed with kinetics buffer. Binding curves were analysed using ForteBio Data Analysis HT 10.0 evaluation software. To control for background signal and non-specific binding, raw experimental data were processed by subtracting reference biosensor and reference sample (no ligand). Processed data from at least six different concentrations of analyte binding were globally fit to a 1:1 Langmuir binding model to calculate the association rate constant ka, the dissociation rate constant kd to achieve R^2 > 0.90. Equilibrium dissociation constants KD which defines the strength of the interaction or affinity was calculated as the kinetic dissociation rate constant divided by the kinetic association rate constant.

senescent A375 cells = test: Peptide efficacy in culture (MTS), senescent cells; format: cell-based, human
Procedure: Cell lines were treated with chemotherapy, doxorubicin (Sigma, Cat. No. 2252) to induce senescence (200 nM for HCT116, 100 nM for B16-F10 and MCF7, 50 nM for SW480 and DLD-1, 40 nM for A375-Luc/iRFP and MCF10a). MCF7 cells were treated with CDK4/6 inhibitor, palbociclib (Selleck Chemicals: S1116) to induce senescence (5 µM). A375 cells were treated with Braf inhibitor, Dabrafenib (Selleck Chemicals: S2807), to induce senescence (10 µM). Peptide efficacy experiments were performed by seeding 10,000 – 20,000 cells in a 96-well plate. The cells were given doxorubicin twice to make the cells senescent. After removal of doxorubicin, the plate was treated with varying concentrations of peptide. The peptide was replenished daily for two days. Cellular proliferation was quantified using the Promega CellTiter 96™ AQueous One Solution Cell Proliferation Assay (MTS) after 2 hours according to the manufacturer's protocol (Promega, G3581). To control for the charge of ES2, ProteoJuice (Millipore Sigma, 71281) was used to deliver ES2 using the manufacturers protocol, except 50 µL of 2 mM ES2 was mixed with 25 µL of ProteoJuice. Varying concentrations of the mixture were administered to A375 cells along with a control of only ProteoJuice.

T1 sequence (P98177 whole entry): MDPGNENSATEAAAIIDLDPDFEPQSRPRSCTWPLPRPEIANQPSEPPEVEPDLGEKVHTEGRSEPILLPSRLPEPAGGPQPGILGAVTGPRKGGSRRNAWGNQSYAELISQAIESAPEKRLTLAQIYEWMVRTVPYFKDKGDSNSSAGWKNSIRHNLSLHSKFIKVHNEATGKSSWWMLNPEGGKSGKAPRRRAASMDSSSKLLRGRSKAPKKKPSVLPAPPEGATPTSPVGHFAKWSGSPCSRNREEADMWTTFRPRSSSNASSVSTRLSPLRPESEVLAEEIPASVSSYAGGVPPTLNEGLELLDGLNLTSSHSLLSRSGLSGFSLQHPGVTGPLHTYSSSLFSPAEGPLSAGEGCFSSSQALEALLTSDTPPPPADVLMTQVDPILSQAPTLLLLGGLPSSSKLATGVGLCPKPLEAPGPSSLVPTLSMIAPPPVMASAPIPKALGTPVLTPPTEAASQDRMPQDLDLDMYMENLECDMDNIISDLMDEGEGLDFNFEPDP

PRKGGRRRRAWGRRRRRRRRRRRRRRAPRKRLTLA [ES2]
luciferase signal compared to E1 and saline [1]: statistically significantly reduced luciferase signal
affinity for FOXO4 compared to TP53 (FOXO4; BLI KD ratio): approximately 4 fold
kon (FOXO4; BLI, 1:1 Langmuir binding model, read-out: association rate ka): 117000 M⁻¹ s⁻¹
kd (FOXO4; BLI, biotinylated ES2 immobilized on streptavidin sensors, analyte 6.25-200 nM, 30°C, global 1:1 Langmuir fit): 7.7e-05 ± 7.2e-07 s⁻¹
kon (FOXO4; BLI, biotinylated ES2 immobilized on streptavidin sensors, analyte 6.25-200 nM, 30°C, global 1:1 Langmuir fit, read-out: ka): 120000 M⁻¹ s⁻¹
Kd (FOXO4; BLI, biotinylated ES2 immobilized on streptavidin sensors, analyte 6.25-200 nM, 30°C, kd/ka): 0.00066 ± 1e-05 µM
cell death (senescent A375 cells; A375 cells, ProteoJuice control experiment, highest concentration): 80%
effect of delivery with ProteoJuice on senolytic activity (senescent A375 cells; ES2 delivered with ProteoJuice vs ES2 alone, senescent A375 cells, n=5): had no effect on viability in senescent cells compared to ES2 alone; also recorded: no difference in senolytic activity
IC50 (senescent A375 cells; doxorubicin (40 nM)-induced senescent A375 cells, peptide replenished daily for two days, MTS, best fit polynomial, read-out: IC50^sen, concentration to kill 50% of senescent cells): ~7 µM
senolytic activity (in words) (senescent A375 cells; senescent vs dividing A375 cells): highest senolytic activity
